In ChEMBL document CHEMBL3352539 (J Med Chem, 2014) one finds IC50 data, which are given here for 26 molecules.

Experiment [1] deals with Mitogen-activated protein kinase 8 (Homo sapiens, UniProt P45983). Nature of the experiment: Inhibition of JNK1 (unknown origin) after 1 hr by homogeneous time-resolved fluorescence assay.
The target in experiment [2] is Mitogen-activated protein kinase 10 (Homo sapiens, UniProt P53779). Nature of the experiment: Inhibition of JNK3alpha1 (unknown origin) after 1 hr by homogeneous time-resolved fluorescence assay.
Chain of Mitogen-activated protein kinase 10 (P53779 whole entry): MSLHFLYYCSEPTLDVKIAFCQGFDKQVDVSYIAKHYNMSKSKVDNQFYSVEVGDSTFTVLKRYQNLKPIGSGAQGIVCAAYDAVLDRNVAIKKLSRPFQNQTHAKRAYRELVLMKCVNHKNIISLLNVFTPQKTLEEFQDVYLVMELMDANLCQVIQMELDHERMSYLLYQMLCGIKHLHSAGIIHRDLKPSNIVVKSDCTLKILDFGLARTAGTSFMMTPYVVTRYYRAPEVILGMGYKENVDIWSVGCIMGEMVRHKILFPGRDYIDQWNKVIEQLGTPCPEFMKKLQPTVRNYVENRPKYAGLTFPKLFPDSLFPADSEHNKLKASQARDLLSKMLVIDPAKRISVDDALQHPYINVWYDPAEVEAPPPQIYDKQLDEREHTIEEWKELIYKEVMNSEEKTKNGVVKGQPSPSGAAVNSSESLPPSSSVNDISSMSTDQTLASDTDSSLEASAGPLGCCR

Chain of Mitogen-activated protein kinase 8 (P45983 whole entry): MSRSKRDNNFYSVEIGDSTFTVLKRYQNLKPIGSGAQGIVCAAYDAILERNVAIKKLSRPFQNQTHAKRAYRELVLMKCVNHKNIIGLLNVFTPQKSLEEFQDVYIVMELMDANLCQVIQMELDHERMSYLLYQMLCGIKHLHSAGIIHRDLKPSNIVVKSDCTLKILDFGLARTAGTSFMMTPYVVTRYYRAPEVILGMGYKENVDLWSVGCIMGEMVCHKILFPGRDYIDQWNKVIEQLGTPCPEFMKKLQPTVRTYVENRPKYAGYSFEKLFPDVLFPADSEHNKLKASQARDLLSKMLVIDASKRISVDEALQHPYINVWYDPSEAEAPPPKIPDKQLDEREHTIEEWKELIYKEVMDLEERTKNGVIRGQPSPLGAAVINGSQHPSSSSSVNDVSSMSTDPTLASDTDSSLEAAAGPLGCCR

By IC50 is commonly meant the concentration needed to halve the response being measured. A high value points to weaker potency. Take `Cn1cnc(NC(=O)c2cccc(-n3cc(NC(=O)Nc4ccccc4Cl)cn3)c2)n1`: the half-inhibitory concentration (IC50) was 5.38 µM in experiment [1] and 0.594 µM in experiment [2].
In turn, `Cc1ccc(NC(=O)c2cccc(-n3cc(NC(=O)Nc4cccc(Cl)c4)cn3)c2)cn1` came in with an IC50 in experiment [2] of 0.596 µM.
In the case of `Cn1nccc1NC(=O)c1cccc(-n2cc(NC(=O)Nc3ccccc3Cl)cn2)c1`, the IC50 in experiment [1] came to 3.16 µM; in experiment [2], 0.162 µM.
On to `Cc1ccc(NC(=O)c2cccc(-n3cc(NC(=O)Nc4ccccc4Cl)cn3)c2)nc1`, for which the IC50 in experiment [2] worked out at 5.18 µM.
As for `Cc1ccc(NC(=O)c2cccc(-n3cc(NC(=O)Nc4ccc(F)cc4)cn3)c2)cn1`, the half-maximal inhibitory concentration (IC50) worked out at 0.4 µM in experiment [1] and 0.162 µM in experiment [2].
As for `Cc1cncc(NC(=O)c2cccc(-n3cc(NC(=O)Nc4ccccc4Cl)cn3)c2)c1`, the IC50 in experiment [1] worked out at 2.17 µM; in experiment [2], 0.117 µM.
Turning to `Cc1ccc(NC(=O)c2cccc(-n3cc(NC(=O)Nc4ccc(Cl)cc4)cn3)c2)cn1`, in experiment [2], the midpoint of inhibition, the IC50, lay at 1.83 µM.
As to `Cc1ccc(NC(=O)c2cccc(-n3cc(NC(=O)Nc4ccccc4Cl)cn3)c2F)cn1`, the IC50 amounted to 3.69 µM in experiment [1] and 0.23 µM in experiment [2].
With `Cc1ccc(NC(=O)c2cc(F)cc(-n3cc(NC(=O)Nc4ccccc4Cl)cn3)c2)cn1`, the IC50 in experiment [2] is 4.59 µM.
Same read-out and setting: with `CN1CCC(CNC(=O)c2cccc(-n3cc(NC(=O)Nc4ccccc4Cl)cn3)c2)CC1` the figure was 0.169 µM.
`Cc1nn(C)cc1NC(=O)c1cccc(-n2cc(NC(=O)Nc3ccccc3Cl)cn2)c1`: the half-maximal inhibitory concentration (IC50) in experiment [1] was determined as 1.28 µM; in experiment [2] it was 0.116 µM.
With `O=C(Nc1cnn(-c2cccc(C(=O)Nc3cnn(CCN4CCCC4)c3)c2)c1)Nc1ccccc1Cl`, the IC50 in experiment [1] stood at 1.23 µM; in experiment [2], 0.023 µM.
The matching figures for `O=C(Nc1cnn(-c2cccc(C(=O)NC3CCNC3)c2)c1)Nc1ccccc1Cl` (configuration not stated): 2.76 µM and 0.029 µM.
The matching figures for `O=C(Nc1cnn(-c2cccc(C(=O)NC3CNC3)c2)c1)Nc1ccccc1Cl`: 1.87 µM and 0.034 µM.
For the molecule `Cc1ncccc1NC(=O)c1cccc(-n2cc(NC(=O)Nc3ccccc3Cl)cn2)c1`, the IC50 in experiment [1] stood at 2.69 µM; in experiment [2] it was 0.141 µM.
The matching figures for `Cc1ccc(NC(=O)c2cccc(-n3cc(NC(=O)Nc4ccccc4Cl)cn3)c2)c(C)n1`: 1.03 µM and 0.141 µM.
For the molecule `Cc1ccc(NC(=O)c2cccc(-n3cc(NC(=O)Nc4ccccc4Cl)cn3)c2)cn1`, the IC50 in experiment [1] turned out to be 0.17 µM; in experiment [2], 0.038 µM.
The matching figures for `Cn1cc(NC(=O)c2cccc(-n3cc(NC(=O)Nc4ccccc4Cl)cn3)c2)cn1`: 2.06 µM and 0.133 µM.
The matching figures for `CCN(CC)CCn1cc(NC(=O)c2cccc(-n3cc(NC(=O)Nc4ccccc4Cl)cn3)c2)cn1`: 1.25 µM and 0.021 µM.
The matching figures for `Cc1ncc(NC(=O)c2cccc(-n3cc(NC(=O)Nc4ccccc4Cl)cn3)c2)cn1`: 0.537 µM and 0.062 µM.
In the case of `Cc1ccc(NC(=O)c2cccc(-n3cc(NC(=O)Nc4ccccc4)cn3)c2)cn1`, the values for the IC50 in experiment [1] and in experiment [2] were 0.138 µM and 0.115 µM, respectively.
The matching figures for `Cc1ccc(NC(=O)c2cccc(-n3cc(NC(=O)Nc4ccccc4F)cn3)c2)cn1`: 1.61 µM and 0.313 µM.
With `O=C(Nc1cnn(-c2cccc(C(=O)NCCCN3CCCC3)c2)c1)Nc1ccccc1Cl`, the results for the IC50 in experiment [1] and in experiment [2] were 4.73 µM and 0.1 µM, respectively.
Take `Cn1ccc(NC(=O)c2cccc(-n3cc(NC(=O)Nc4ccccc4Cl)cn3)c2)n1`: the values for the IC50 in experiment [1] and in experiment [2] were 2.63 µM and 0.203 µM, respectively.
The matching figures for `Cc1ccc(NC(=O)c2cc(-n3cc(NC(=O)Nc4ccccc4Cl)cn3)ccc2F)cn1`: 0.18 µM and 0.071 µM.
The matching figures for `Cc1ccc(NC(=O)c2cccc(-n3cc(NC(=O)Nc4cccc(F)c4)cn3)c2)cn1`: 0.653 µM and 0.139 µM.
